Experiments:
[1] = test system: Human immunodeficiency virus 1; experiment: Antiviral activity against HIV1; type: functional, organism-based
[2] = test system: Human immunodeficiency virus 1; experiment: Antiviral activity against HIV1 harbouring NNRTI K103N; type: functional, organism-based
[3] = test system: Human immunodeficiency virus 1; experiment: Antiviral activity against HIV1 3B infected in human MT4 cells assessed as virus-induced cytopathic effect incubated for 5 days by MTT assay; type: functional, organism-based; details: Human immunodeficiency virus 1, 3B, MT4, 120 h
[4] = test system: Human immunodeficiency virus 1; experiment: Antiviral activity against HIV1 3B harbouring NNRTI K103N mutant infected in human MT4 cells assessed as virus-induced cytopathic effect incubated for 5 days by MTT assay; type: functional, organism-based; details: Human immunodeficiency virus 1, 3B, MT4, 120 h
[5] = Cytotoxicity against human MT4 cells assessed as reduction in cell viability incubated for 5 days by MTT assay; type: cell-based
[6] = target: Human immunodeficiency virus type 1 reverse transcriptase (Human immunodeficiency virus 1, UniProt Q72547)
Description: Inhibition of recombinant wild type HIV-1 His-tagged reverse transcriptase p66/p51 expressed in Escherichia coli JM109 using poly(rA)/oligo(dT)16 as template/primer incubated for 40 mins by pico-green based spectrofluorometric analysis

in vitro [7] = details: human, MT4 cells; MT4 cells infected with HIV1 3B
Description: Selectivity index, ratio of CC50 for cytotoxicity against human MT4 cells to EC50 for antiviral activity against HIV1 3B infected in human MT4 cells

in vitro [8] = details: human, MT4 cells; MT4 cells infected with HIV1 3B K103N mutant
Description: Selectivity index, ratio of CC50 for cytotoxicity against human MT4 cells to EC50 for antiviral activity against HIV1 3B harbouring NNRTI K103N mutant infected in human MT4 cells

[9] = Stability in human liver microsomes assessed as intrinsic clearance; type: ADME, Microsome; details: read-out: CLH
[10] = Stability in human liver microsomes assessed as half life; type: ADME, Microsome
[11] = Stability in rat liver microsomes assessed as intrinsic clearance; type: ADME, Microsome; details: read-out: CLH
[12] = Stability in rat liver microsomes assessed as half life; type: ADME, Microsome

Structure (SMILES) | EC50 [1] [nM] | EC50 [2] [nM] | EC50 [3] [nM] | EC50 [4] [nM] | CC50 at 120 h [5] [nM] | IC50 [6] [nM] | selectivity ratio (in vitro [7]) | selectivity ratio (in vitro [8]) | microsomal CLint [9] [µL/min/mg] | half-life [10] [h] | microsomal CLint [11] [µL/min/mg] | half-life [12] [h]
O=C(CSc1nnc(Br)n1-c1ccc(C2CC2)c2ccccc12)Nc1ccc(C(=O)O)cc1Cl | 2.85 | < 3 | – | – | – | – | – | – | – | – | – | –
COc1cc2nc([S+]([O-])CC(=O)Nc3ccc([N+](=O)[O-])cc3)nc(Nc3c(C)cc(/C=C/C#N)cc3C)c2cc1OC (stereo not drawn) | – | – | 41.2 | 15.7 | 189000 | 11 | 4590 | 12100 | – | – | – | –
COc1cc2nc([S+]([O-])CC(=O)Nc3ccc(C#N)cc3)nc(Nc3c(C)cc(/C=C/C#N)cc3C)c2cc1OC (stereo not drawn) | – | – | 24.9 | 10.4 | > 221000 | 5.7 | > 8870 | > 21200 | 8.45 | 1.37 | 8.58 | 1.35

From ChEMBL document CHEMBL4312037, “Fragment hopping-based discovery of novel sulfinylacetamide-diarylpyrimidines (DAPYs) as HIV-1 nonnucleoside reverse transcriptase inhibitors” (Eur J Med Chem, 2020)
